This test has as its system P388 leukemia ip, CD2F1 mice, survival T/C. The test is described as follows: NCI In Vivo Anticancer Drug Screen. Data for tumor model P388 Leukemia (intraperitoneal) in CD2F1 (CDF1) mice. As to conditions: endpoint: median survival time, higher = longer survival. A digest of the protocol: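 Mice carrying the transplanted tumor received test compound or vehicle. Survival was recorded in each group, and the value is the treated-group measurement divided by that of the vehicle-treated control group.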

[1] abbreviates: dose: 50.0 mg/kg/injection, schedule: Q01DX009 (ip), vehicle: saline.
[2] abbreviates: dose: 100.0 mg/kg/injection, schedule: Q01DX009 (ip), vehicle: saline.
Where [3] appears, read: dose: 200.0 mg/kg/injection, schedule: Q01DX009 (ip), vehicle: saline.
The mark [4] stands for this setting: dose: 50.0 mg/kg/injection, schedule: Q01DX005 (ip), vehicle: Klucel (hydroxypropylcellulose) (HPC).
The mark [5] stands for this setting: dose: 50.0 mg/kg/injection, schedule: Q01DX009 (ip), vehicle: Klucel (hydroxypropylcellulose) (HPC).
Setting [6] is: dose: 100.0 mg/kg/injection, schedule: Q01DX009 (ip), vehicle: Klucel (hydroxypropylcellulose) (HPC).
[7] abbreviates: dose: 200.0 mg/kg/injection, schedule: Q01DX009 (ip), vehicle: Klucel (hydroxypropylcellulose) (HPC).
The mark [8] stands for this setting: dose: 100.0 mg/kg/injection, schedule: Q01DX005 (ip), vehicle: Klucel (hydroxypropylcellulose) (HPC).
[9] abbreviates: dose: 200.0 mg/kg/injection, schedule: Q01DX005 (ip), vehicle: Klucel (hydroxypropylcellulose) (HPC).
[10] abbreviates: dose: 50.0 mg/kg/injection, schedule: Q01DX005 (ip), vehicle: saline with Tween-80.
The mark [11] stands for this setting: dose: 100.0 mg/kg/injection, schedule: Q01DX005 (ip), vehicle: saline with Tween-80.
[12] abbreviates: dose: 200.0 mg/kg/injection, schedule: Q01DX005 (ip), vehicle: saline with Tween-80.
Where [13] appears, read: dose: 50.0 mg/kg/injection, schedule: Q01DX009 (ip), vehicle: saline with Tween-80.
Setting [14] is: dose: 100.0 mg/kg/injection, schedule: Q01DX009 (ip), vehicle: saline with Tween-80.
The mark [15] stands for this setting: dose: 200.0 mg/kg/injection, schedule: Q01DX009 (ip), vehicle: saline with Tween-80.
Where [16] appears, read: dose: 60.0 mg/kg/injection, schedule: Q01DX005 (ip), vehicle: saline with Tween-80.
The mark [17] stands for this setting: dose: 120.0 mg/kg/injection, schedule: Q01DX005 (ip), vehicle: saline with Tween-80.
[18] abbreviates: dose: 240.0 mg/kg/injection, schedule: Q01DX005 (ip), vehicle: saline with Tween-80.

Values joined by “and” are separate entries in the source; they are usually repeats but may differ in a detail not shown here. Equal entries are not always repeated. Toxic doses and inconclusive results are not listed.

For `Cn1cnc2cc3c(cc2c1=O)nc1n3CCCC1`, the T/C by setting is: (dose: 100.0 mg/kg/injection, schedule: Q04DX003 (ip), vehicle: saline) 102 % of control; (dose: 200.0 mg/kg/injection, schedule: Q04DX003 (ip), vehicle: saline) 95 % of control.
`CCOC/C(=N\NS(=O)(=O)c1ccc(C)cc1)C1(O)Cc2c(O)c3c(c(O)c2C(O)C1)C(=O)c1c(OC)cccc1C3=O` (stereo not drawn): the T/C was 100 % of control (dose: 1.56 mg/kg/injection, schedule: Q01DX009 (ip), vehicle: other); 100 % of control (dose: 3.13 mg/kg/injection, schedule: Q01DX009 (ip), vehicle: other); 103 % of control (dose: 6.25 mg/kg/injection, schedule: Q01DX009 (ip), vehicle: other); 107 % of control (dose: 12.5 mg/kg/injection, schedule: Q01DX009 (ip), vehicle: other); 94 % of control (dose: 25.0 mg/kg/injection, schedule: Q01DX009 (ip), vehicle: other).
`COCCc1nn[nH]n1`: the T/C was 110 % of control under setting [1], 115 % of control under setting [2] and 109 % of control under setting [3].
Turning to `Nc1ccc(C(=O)NO)cc1`, the T/C is 99 % of control (dose: 25.0 mg/kg/injection, schedule: Q01DX009 (ip), vehicle: suspension in saline); 99 % of control (dose: 50.0 mg/kg/injection, schedule: Q01DX009 (ip), vehicle: suspension in saline); 96 % of control (dose: 100.0 mg/kg/injection, schedule: Q01DX009 (ip), vehicle: suspension in saline); 109 % of control (dose: 200.0 mg/kg/injection, schedule: Q01DX009 (ip), vehicle: suspension in saline).
Regarding `O=C(c1ccncc1)c1cc(Cl)c(Cl)cc1Cl`, the T/C (dose: 50.0 mg/kg/injection, schedule: Q04DX002 (ip), vehicle: saline with Tween-80) was 102 % of control; the T/C (dose: 100.0 mg/kg/injection, schedule: Q04DX002 (ip), vehicle: saline with Tween-80) is 93 % of control; the T/C (dose: 200.0 mg/kg/injection, schedule: Q04DX002 (ip), vehicle: saline with Tween-80) was 111 % of control.
Turning to `O=C1C(=C(Cl)Cl)C(=O)c2ccccc21`, the T/C is, setting by setting: (dose: 12.5 mg/kg/injection, schedule: Q01DX005 (ip), vehicle: saline) 103 % of control; (dose: 25.0 mg/kg/injection, schedule: Q01DX005 (ip), vehicle: saline) 100 % of control; under setting [4], 91 % of control; (dose: 50.0 mg/kg/injection, schedule: Q01DX005 (ip), vehicle: saline) 95 % of control.
In the case of `COc1ccc2c(c1)CSCC2=O`, the T/C by setting is: under setting [5], 98 % of control; under setting [6], 98 % of control; under setting [7], 100 % of control.
`CC1=NN(c2ccccc2)[As]2ON=C(c3ccc(Cl)cc3)C12` (stereo not drawn): the T/C under setting [4] was 102 % of control, the T/C under setting [8] is 103 % of control and the T/C under setting [9] was 108 % of control.
With `COc1ccc(C(=NCCO)c2ccc(O)cc2)c(OC)c1`, the T/C runs as follows: under setting [10], 104 % of control; under setting [11], 92 % of control; under setting [12], 91 % of control.
As to `CCc1cc2c(cc1-c1csc(C/C(N)=N/O)n1)C(C)(C)CCC2(C)C`, the T/C under setting [1] is 104 % of control, the T/C under setting [2] was 103 % of control and the T/C under setting [3] is 100 % of control.
In the case of `CCCCn1c2nc(=O)n(C)c(=O)c-2cc2ccccc21`, the T/C reads like this: under setting [13], 110 % of control and 90 % of control; (dose: 66.0 mg/kg/injection, schedule: Q01DX009 (ip), vehicle: saline with Tween-80) 103 % of control; under setting [14], 102 % of control; (dose: 150.0 mg/kg/injection, schedule: Q01DX009 (ip), vehicle: saline with Tween-80) 103 % of control; under setting [15], 120 % of control and 98 % of control.
With `c1cc(OCCOc2cccc3ocnc23)c2ncoc2c1`, the T/C was 98 % of control and 92 % of control under setting [16]; 99 % of control under setting [17]; 86 % of control and 89 % of control under setting [18].
Take `O=C(Nc1ccc(S(=O)(=O)F)cc1)Oc1ccc([N+](=O)[O-])cc1`: the T/C by setting is: under setting [16], 121 % of control; under setting [17], 101 % of control; under setting [18], 86 % of control.
Take `CC(=O)NC(CSC1(c2ccccc2)c2ccccc2-c2ccccc21)C(=O)O` (stereo not drawn): the T/C is, setting by setting: (dose: 60.0 mg/kg/injection, schedule: Q01DX005 (ip), vehicle: Klucel (hydroxypropylcellulose) (HPC)) 93 % of control; (dose: 120.0 mg/kg/injection, schedule: Q01DX005 (ip), vehicle: Klucel (hydroxypropylcellulose) (HPC)) 89 % of control.
With `CC(O)C(O)C(O)C(O)C=O` (stereo not drawn), the T/C is, setting by setting: (dose: 60.0 mg/kg/injection, schedule: Q01DX005 (ip), vehicle: saline) 109 % of control; (dose: 240.0 mg/kg/injection, schedule: Q01DX005 (ip), vehicle: saline) 100 % of control.
Consider `N#Cc1cc(Cl)ccc1[N+](=O)[O-]`, for which the T/C under setting [13] is 102 % of control and the T/C under setting [14] was 103 % of control.
`COc1c(Cl)cc(Cl)cc1C(=O)NO`: the T/C runs as follows: under setting [10], 97 % of control; under setting [11], 106 % of control; under setting [12], 112 % of control.
As to `N#CC(C(=O)C(=O)Nc1ccc(Cl)cc1Cl)c1c(Cl)cccc1Cl` (stereo not drawn), the T/C under setting [16] is 100 % of control and the T/C under setting [17] is 101 % of control.
As to `CC(=O)OC[C@]12CCC(C)=CC1O[C@@H]1C(OC(C)=O)[C@@H](O)[C@@]2(C)[C@]12CO2` (stereo partly drawn), the T/C runs as follows: (dose: 0.5 mg/kg/injection, schedule: Q01DX009 (ip), vehicle: saline) 116 % of control; (dose: 4.0 mg/kg/injection, schedule: Q01DX009 (ip), vehicle: saline) 165 % of control.
`Fc1cccc(Cl)c1CSc1n[nH]c(C(F)(F)F)n1`: the T/C is, setting by setting: under setting [16], 102 % of control; under setting [17], 100 % of control; under setting [18], 111 % of control.
As to `C=C(C)C(=O)OCCN(CC)CC`, the T/C was 100 % of control under setting [10], 99 % of control under setting [11] and 100 % of control under setting [12].
For `N#C/C(=C\C=C\c1ccccc1)c1nc(-c2ccc(Cl)cc2)cs1`, the T/C under setting [1] is 91 % of control, the T/C under setting [2] was 91 % of control and the T/C under setting [3] was 88 % of control.
Regarding `Cn1cnc2cc3c(cc2c1=O)nc1n3CCOC1`, the T/C is 103 % of control (dose: 100.0 mg/kg/injection, schedule: Q04DX003 (ip), vehicle: Klucel (hydroxypropylcellulose) (HPC)); 100 % of control (dose: 200.0 mg/kg/injection, schedule: Q04DX003 (ip), vehicle: Klucel (hydroxypropylcellulose) (HPC)); 93 % of control (dose: 400.0 mg/kg/injection, schedule: Q04DX003 (ip), vehicle: Klucel (hydroxypropylcellulose) (HPC)).
As for `CCCCC(NC(=O)C(C)N)C(=O)O` (stereo not drawn), the T/C under setting [5] was 98 % of control; the T/C under setting [6] is 98 % of control; the T/C under setting [7] was 95 % of control; the T/C (dose: 400.0 mg/kg/injection, schedule: Q01DX009 (ip), vehicle: Klucel (hydroxypropylcellulose) (HPC)) is 101 % of control.
Turning to `CC(C)(C)OC(=O)NC(CCC(=O)O)(Cc1ccccc1)C(=O)NC(CCC(=O)O)(Cc1ccccc1)C(=O)OCc1ccccc1` (stereo not drawn), the T/C is 98 % of control (dose: 6.25 mg/kg/injection, schedule: Q01DX005 (ip), vehicle: saline with Tween-80); 105 % of control (dose: 12.5 mg/kg/injection, schedule: Q01DX005 (ip), vehicle: saline with Tween-80); 88 % of control (dose: 25.0 mg/kg/injection, schedule: Q01DX005 (ip), vehicle: saline with Tween-80).
Take `N#CC(C(=O)C(=O)Nc1cccc(C(F)(F)F)c1)c1ccccc1Cl` (stereo not drawn): the T/C under setting [16] is 102 % of control, the T/C under setting [17] was 97 % of control and the T/C under setting [18] is 99 % of control.
With `CC(=O)[C@H]1CC[C@H]2[C@@H]3CCC4=CC(=O)C=C[C@]4(C)[C@H]3C(=O)C[C@]12C`, the T/C reads like this: under setting [14], 100 % of control; under setting [15], 100 % of control; (dose: 400.0 mg/kg/injection, schedule: Q01DX009 (ip), vehicle: saline with Tween-80) 100 % of control.
On to `CSC(=O)Nc1ccc(C)c(NC(=O)SC)c1`, for which the T/C reads like this: under setting [10], 94 % of control; under setting [11], 100 % of control; under setting [12], 100 % of control.
With `NC(CSSCC(N)C(=O)c1ccccc1)C(=O)c1ccccc1` (stereo not drawn), the T/C under setting [4] was 98 % of control, the T/C under setting [8] is 98 % of control and the T/C under setting [9] was 105 % of control.

The values are drawn from PubChem BioAssay AID330 (DTP/NCI, 2004).
